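Each compound was tested at five concentrations against cells in 96-well plates for 48 hours. At the GI50, growth is halved. At the TGI there is no net growth.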
How the values were obtained:
Test in all cases: NCI anticancer screen, dose series, 48 h
BT-549 breast = tested on: BT-549 breast
COLO 205 colon = tested on: COLO 205 colon
SNB-75 CNS = tested on: SNB-75 CNS
SN12C renal = tested on: SN12C renal
M14 melanoma = tested on: M14 melanoma
U251 CNS = tested on: U251 CNS
SK-MEL-2 melanoma = tested on: SK-MEL-2 melanoma
T-47D breast = tested on: T-47D breast
SK-MEL-5 melanoma = tested on: SK-MEL-5 melanoma
HT29 colon = tested on: HT29 colon
PC-3 prostate = tested on: PC-3 prostate
786-0 renal = tested on: 786-0 renal
RXF 393 renal = tested on: RXF 393 renal
MCF7 breast = tested on: MCF7 breast
HCT-116 colon = tested on: HCT-116 colon
NCI/ADR-RES ovarian = tested on: NCI/ADR-RES ovarian
LOX IMVI melanoma = tested on: LOX IMVI melanoma
TK-10 renal = tested on: TK-10 renal
SR leukemia = tested on: SR leukemia
UACC-62 melanoma = tested on: UACC-62 melanoma
UACC-257 melanoma = tested on: UACC-257 melanoma
SK-OV-3 ovarian = tested on: SK-OV-3 ovarian
HOP-92 NSCLC = tested on: HOP-92 NSCLC
CCRF-CEM leukemia = tested on: CCRF-CEM leukemia
OVCAR-8 ovarian = tested on: OVCAR-8 ovarian
SF-539 CNS = tested on: SF-539 CNS
NCI-H460 lung = tested on: NCI-H460 lung
MALME-3M melanoma = tested on: MALME-3M melanoma
IGROV1 ovarian = tested on: IGROV1 ovarian
SNB-19 CNS = tested on: SNB-19 CNS
HCT-15 colon = tested on: HCT-15 colon
MOLT-4 leukemia = tested on: MOLT-4 leukemia
HL-60(TB) leukemia = tested on: HL-60(TB) leukemia
A549 NSCLC = tested on: A549 NSCLC
HS 578T breast = tested on: HS 578T breast
NCI-H23 lung = tested on: NCI-H23 lung
SF-268 CNS = tested on: SF-268 CNS
SK-MEL-28 melanoma = tested on: SK-MEL-28 melanoma
HCC-2998 colon = tested on: HCC-2998 colon
CAKI-1 renal = tested on: CAKI-1 renal
UO-31 renal = tested on: UO-31 renal
OVCAR-4 ovarian = tested on: OVCAR-4 ovarian
K-562 leukemia = tested on: K-562 leukemia
EKVX NSCLC = tested on: EKVX NSCLC
MDA-MB-435 = tested on: MDA-MB-435
A498 renal = tested on: A498 renal
SF-295 CNS = tested on: SF-295 CNS
KM12 colon = tested on: KM12 colon
NCI-H226 lung = tested on: NCI-H226 lung
DU-145 prostate = tested on: DU-145 prostate
OVCAR-3 ovarian = tested on: OVCAR-3 ovarian
NCI-H522 lung = tested on: NCI-H522 lung
SW-620 colon = tested on: SW-620 colon
RPMI-8226 leukemia = tested on: RPMI-8226 leukemia
HOP-62 NSCLC = tested on: HOP-62 NSCLC
OVCAR-5 ovarian = tested on: OVCAR-5 ovarian
MDA-MB-231 breast = tested on: MDA-MB-231 breast
ACHN renal = tested on: ACHN renal

c1ccc(-c2c(-c3ccccc3)[n+](Cc3ccc4ccccc4c3)c(-c3cccc4ccccc34)n2Cc2ccc3ccccc3c2)cc1
GI50 (BT-549 breast): 122 nM
TGI (BT-549 breast): 1180 nM
GI50 (COLO 205 colon): 76.5 nM
TGI (COLO 205 colon): 228 nM
GI50 (SNB-75 CNS): 192 nM
TGI (SNB-75 CNS): 955 nM
GI50 (SN12C renal): 127 nM
TGI (SN12C renal): 1140 nM
GI50 (M14 melanoma): 187 nM
TGI (M14 melanoma): 1440 nM
GI50 (U251 CNS): 74.7 nM
TGI (U251 CNS): 1460 nM
GI50 (SK-MEL-2 melanoma): 140 nM
TGI (SK-MEL-2 melanoma): 758 nM
GI50 (T-47D breast): 64.8 nM
TGI (T-47D breast): 1270 nM
GI50 (SK-MEL-5 melanoma): 155 nM
TGI (SK-MEL-5 melanoma): 296 nM
GI50 (HT29 colon): 46.6 nM
TGI (HT29 colon): 1100 nM
GI50 (PC-3 prostate): 64.1 nM
TGI (PC-3 prostate): 1210 nM
GI50 (786-0 renal): 231 nM
TGI (786-0 renal): 1630 nM
GI50 (RXF 393 renal): 220 nM
TGI (RXF 393 renal): 949 nM
GI50 (MCF7 breast): 169 nM
TGI (MCF7 breast): 1070 nM
GI50 (HCT-116 colon): 92.7 nM
TGI (HCT-116 colon): 1250 nM
GI50 (NCI/ADR-RES ovarian): 1300 nM
TGI (NCI/ADR-RES ovarian): 2940 nM
GI50 (LOX IMVI melanoma): 150 nM
TGI (LOX IMVI melanoma): 496 nM
GI50 (TK-10 renal): 239 nM
TGI (TK-10 renal): 1530 nM
GI50 (SR leukemia): 192 nM
TGI (SR leukemia): 1530 nM
GI50 (UACC-62 melanoma): 286 nM
TGI (UACC-62 melanoma): 1400 nM
GI50 (UACC-257 melanoma): 221 nM
TGI (UACC-257 melanoma): 958 nM
GI50 (SK-OV-3 ovarian): 207 nM
TGI (SK-OV-3 ovarian): 973 nM
GI50 (HOP-92 NSCLC): 79.1 nM
TGI (HOP-92 NSCLC): 479 nM
GI50 (CCRF-CEM leukemia): 128 nM
TGI (CCRF-CEM leukemia): 1660 nM
GI50 (OVCAR-8 ovarian): 153 nM
TGI (OVCAR-8 ovarian): 1540 nM
GI50 (SF-539 CNS): 371 nM
TGI (SF-539 CNS): 1500 nM
GI50 (NCI-H460 lung): 154 nM
TGI (NCI-H460 lung): 1140 nM
GI50 (MALME-3M melanoma): 91 nM
TGI (MALME-3M melanoma): 1000 nM
GI50 (IGROV1 ovarian): 147 nM
TGI (IGROV1 ovarian): 1390 nM
GI50 (SNB-19 CNS): 108 nM
TGI (SNB-19 CNS): 1420 nM
GI50 (HCT-15 colon): 327 nM
TGI (HCT-15 colon): 1210 nM
GI50 (MOLT-4 leukemia): 233 nM
TGI (MOLT-4 leukemia): 1270 nM
GI50 (HL-60(TB) leukemia): 34.2 nM
TGI (HL-60(TB) leukemia): 228 nM
GI50 (A549 NSCLC): 166 nM
TGI (A549 NSCLC): 1570 nM
GI50 (HS 578T breast): 302 nM
TGI (HS 578T breast): 2200 nM
GI50 (NCI-H23 lung): 146 nM
TGI (NCI-H23 lung): 748 nM
GI50 (SF-268 CNS): 220 nM
TGI (SF-268 CNS): 1760 nM
GI50 (SK-MEL-28 melanoma): 191 nM
TGI (SK-MEL-28 melanoma): 1880 nM
GI50 (HCC-2998 colon): 131 nM
TGI (HCC-2998 colon): 1500 nM
GI50 (CAKI-1 renal): 265 nM
TGI (CAKI-1 renal): 1010 nM
GI50 (UO-31 renal): 306 nM
TGI (UO-31 renal): 1280 nM
GI50 (OVCAR-4 ovarian): 187 nM
TGI (OVCAR-4 ovarian): 1120 nM
GI50 (K-562 leukemia): 45.1 nM
TGI (K-562 leukemia): > 100000 nM
GI50 (EKVX NSCLC): 187 nM
TGI (EKVX NSCLC): 1430 nM
GI50 (MDA-MB-435): 284 nM
TGI (MDA-MB-435): 1180 nM
GI50 (A498 renal): < 47.1 nM
TGI (A498 renal): 398 nM
GI50 (SF-295 CNS): 90.6 nM
TGI (SF-295 CNS): 458 nM
GI50 (KM12 colon): 98.7 nM
TGI (KM12 colon): 758 nM
GI50 (NCI-H226 lung): 203 nM
TGI (NCI-H226 lung): 828 nM
GI50 (DU-145 prostate): 262 nM
TGI (DU-145 prostate): 1440 nM
GI50 (OVCAR-3 ovarian): 94.5 nM
TGI (OVCAR-3 ovarian): 1280 nM
GI50 (NCI-H522 lung): 253 nM
TGI (NCI-H522 lung): 978 nM
GI50 (SW-620 colon): 151 nM
TGI (SW-620 colon): 1330 nM
GI50 (RPMI-8226 leukemia): 32.6 nM
TGI (RPMI-8226 leukemia): 295 nM
GI50 (HOP-62 NSCLC): 301 nM
TGI (HOP-62 NSCLC): 1780 nM
GI50 (OVCAR-5 ovarian): 321 nM
TGI (OVCAR-5 ovarian): 1350 nM
GI50 (MDA-MB-231 breast): 220 nM
TGI (MDA-MB-231 breast): 1000 nM
GI50 (ACHN renal): 249 nM
TGI (ACHN renal): 743 nM

Source: PubChem BioAssay (NCI)
